Tests used:
Format in all cases: in vivo
Zymoseptoria tritici = test: Leaf blotch of wheat (SEPTTR) disease control on wheat seedlings; design: key to SEPTTR 1DP, HV activity at 100 ppm (% control rating) / SEPTTR 3DC, HV activity at 100 ppm (% control rating) / SEPTTR disease control, 1DP / SEPTTR disease control, 3DC / SEPTTR 1DP disease control rating, HV activity / SEPTTR 3DC disease control rating, HV activity / SEPTTR 3DC, LV activity at 125.1 g/H (% Control rating) / SEPTTR 1DP, LV activity at 125.1 g/H (% Control rating) / SEPTTR 1DP disease control rating, LV activity at 125.1 g/H / SEPTTR 3DC disease control rating, LV activity at 125.1 g/H / SEPTTR 3DC disease control rating, HV activity at 100 ppm / SEPTTR 1DP disease control rating, HV activity at 100 ppm / HV activity at 100 ppm SEPTTR 3DC (disease control rating) / HV activity at 100 ppm SEPTTR 1DP (disease control rating) / LV activity at 125.1 g/H SEPTTR 1DP (disease control rating) / LV activity at 125.1 g/H SEPTTR 3DC (disease control rating): A: > 80; B: ≤ 80; C: Not Tested; D: No Activity Observed in the Reported Assay; conditions: for SEPTTR 1DP disease control rating, HV activity / SEPTTR 3DC disease control rating, HV activity: HV application at 100 ppm
Puccinia triticina = test: Wheat brown rust (PUCCRT) disease control on wheat seedlings; design: key to PUCCRT 3DC, HV activity at 100 ppm (% control rating) / PUCCRT disease control, 3DC / PUCCRT 1DP disease control rating, HV activity / PUCCRT 3DC disease control rating, HV activity / PUCCRT 3DC, LV activity at 125.1 g/H (% Control rating) / PUCCRT 1DP, LV activity at 125.1 g/H (% Control rating) / PUCCRT 3DC disease control rating, LV activity at 125.1 g/H / PUCCRT 1DP disease control rating, LV activity at 125.1 g/H / PUCCRT 3DC disease control rating, HV activity at 100 ppm / PUCCRT 1DP disease control rating, HV activity at 100 ppm / HV activity at 100 ppm PUCCRT 3DC (disease control rating) / LV activity at 125.1 g/H PUCCRT 1DP (disease control rating) / LV activity at 125.1 g/H PUCCRT 3DC (disease control rating): A: > 80; B: ≤ 80; C: Not Tested; D: No Activity Observed in the Reported Assay; conditions: for PUCCRT 1DP disease control rating, HV activity / PUCCRT 3DC disease control rating, HV activity: HV application at 100 ppm
Phakopsora pachyrhizi = test: Asian soybean rust (PHAKPA) disease control; design: key: A: > 80; B: ≤ 80; C: Not Tested; D: No Activity Observed in the Reported Assay; conditions: 25 ppm; for PHAKPA disease control, 1DP: 1 Day Protectant; for PHAKPA disease control, 3DC: 3 Day Curative
[1] = low volume application, 125.1 g/H, 1 day protectant
[2] = low volume application, 125.1 g/H, 3 day curative
[3] = 1 Day Protectant, wheat leaf blotch
[4] = 3 Day Curative, wheat leaf blotch
[5] = 1 Day Protectant, wheat brown rust
[6] = 3 Day Curative, wheat brown rust
[7] = low volume application, 125.1 g/H, 1 Day Protectant
[8] = low volume application, 125.1 g/H, 3 Day Curative
[9] = low volume application, 125.1 g/H, 1 Day Protectant, wheat leaf blotch
[10] = low volume application, 125.1 g/H, 3 Day Curative, wheat leaf blotch
[11] = low volume application, 125.1 g/H, 1 Day Protectant, wheat brown rust
[12] = low volume application, 125.1 g/H, 3 Day Curative, wheat brown rust

Compound | PHAKPA disease control, 1DP (Phakopsora pachyrhizi) | PHAKPA disease control, 3DC (Phakopsora pachyrhizi) | SEPTTR 1DP, LV activity at 125.1 g/H (% Control rating) (Zymoseptoria tritici; [7]) | SEPTTR 3DC, LV activity at 125.1 g/H (% Control rating) (Zymoseptoria tritici; [8]) | PUCCRT 1DP, LV activity at 125.1 g/H (% Control rating) (Puccinia triticina; [7]) | PUCCRT 3DC, LV activity at 125.1 g/H (% Control rating) (Puccinia triticina; [8]) | LV activity at 125.1 g/H SEPTTR 1DP (disease control rating) (Zymoseptoria tritici; [9]) | LV activity at 125.1 g/H SEPTTR 3DC (disease control rating) (Zymoseptoria tritici; [10]) | LV activity at 125.1 g/H PUCCRT 1DP (disease control rating) (Puccinia triticina; [11]) | LV activity at 125.1 g/H PUCCRT 3DC (disease control rating) (Puccinia triticina; [12]) | also measured
COc1ccnc(C(=O)NC(C)C(=O)OC(C)(C)C(Oc2ccccc2)C(C)C)c1OCOC(C)=O (mixture of isomers) [Cmpd 904] | A (> 80) | B (≤ 80) |  |  |  |  |  |  |  |  | SEPTTR 1DP disease control rating, LV activity at 125.1 g/H (Zymoseptoria tritici; [1]): B (≤ 80); SEPTTR 3DC disease control rating, LV activity at 125.1 g/H (Zymoseptoria tritici; [2]): A (> 80); PUCCRT 1DP disease control rating, LV activity at 125.1 g/H (Puccinia triticina; [1]): A (> 80); PUCCRT 3DC disease control rating, LV activity at 125.1 g/H (Puccinia triticina; [2]): A (> 80)
COc1ccnc(C(=O)N[C@@H](C)C(=O)O[C@@H](C)[C@H](Oc2ccccc2)C(C)C)c1O [Cmpd 304] | D | B (≤ 80) |  |  |  |  |  |  |  |  | SEPTTR 1DP disease control rating, HV activity (Zymoseptoria tritici; [3]): A (> 80); SEPTTR 3DC disease control rating, HV activity (Zymoseptoria tritici; [4]): A (> 80); PUCCRT 1DP disease control rating, HV activity (Puccinia triticina; [5]): A (> 80); PUCCRT 3DC disease control rating, HV activity (Puccinia triticina; [6]): A (> 80)
C=CC(OCCC)C(Oc1ccccc1)C(C)OC(=O)C(C)NC(=O)c1nccc(OC)c1OCOC(C)=O (stereo not drawn) [Cmpd 455] | A (> 80) | B (≤ 80) |  |  |  |  |  |  |  |  | SEPTTR 1DP disease control rating, HV activity (Zymoseptoria tritici; [3]): A (> 80); SEPTTR 3DC disease control rating, HV activity (Zymoseptoria tritici; [4]): A (> 80); SEPTTR 1DP disease control rating, LV activity (Zymoseptoria tritici; Low volume application at 125.1 g/H, 1 Day Protectant, wheat leaf blotch): A (> 80); SEPTTR 3DC disease control rating, LV activity (Zymoseptoria tritici; Low volume application at 125.1 g/H, 3 Day Curative, wheat leaf blotch): A (> 80); PUCCRT 1DP disease control rating, HV activity (Puccinia triticina; [5]): A (> 80); PUCCRT 3DC disease control rating, HV activity (Puccinia triticina; [6]): A (> 80); PUCCRT 1DP disease control rating, LV activity (Puccinia triticina; Low volume application at 125.1 g/H, 1 Day Protectant, wheat brown rust): A (> 80); PUCCRT 3DC disease control rating, LV activity (Puccinia triticina; Low volume application at 125.1 g/H, 3 Day Curative, wheat brown rust): A (> 80)
CCCOC[C@@H](Oc1ccccc1)[C@H](C)OC(=O)[C@H](C)NC(=O)c1nccc(OC)c1OC(C)=O [Cmpd 474] | B (≤ 80) | B (≤ 80) | B (≤ 80) | A (> 80) | A (> 80) | A (> 80) |  |  |  |  | 
CCC(CC)[C@@H](Oc1ccccc1)[C@H](C)OC(=O)CNC(=O)c1nccc(OC)c1OC(C)=O [Cmpd 480] | B (≤ 80) | B (≤ 80) | B (≤ 80) | B (≤ 80) | A (> 80) | A (> 80) |  |  |  |  | 
COCC[C@H](Cc1ccc(F)cc1)[C@@H](Oc1ccccc1)[C@H](C)OC(=O)[C@H](C)NC(=O)c1nccc(OC)c1OCOC(C)=O [Cmpd 498] | A (> 80) | B (≤ 80) | A (> 80) | A (> 80) | A (> 80) | A (> 80) |  |  |  |  | 
COc1ccnc(C(=O)N[C@@H](C)C(=O)O[C@@H](C)[C@H](Oc2ccccc2)c2ccccc2)c1OC(C)=O [Cmpd 501] | B (≤ 80) | B (≤ 80) | A (> 80) | A (> 80) | A (> 80) | A (> 80) |  |  |  |  | 
CC[C@@H](CCC(C)C)[C@H](Oc1ccccc1)[C@H](C)OC(=O)[C@H](C)NC(=O)c1nccc(OC)c1OCOC(C)=O [Cmpd 502] | A (> 80) | B (≤ 80) | A (> 80) | A (> 80) | A (> 80) | A (> 80) |  |  |  |  | 
COc1ccnc(C(=O)N[C@@H](C)C(=O)O[C@@H](C)[C@@H](Cc2ccccc2)Oc2ccccc2)c1OCOC(C)=O [Cmpd 550] | B (≤ 80) | B (≤ 80) | A (> 80) | A (> 80) | A (> 80) | A (> 80) |  |  |  |  | 
COc1ccnc(C(=O)NC(C)C(=O)OC(C)C(CC(C)C)Oc2ccc3ccccc3c2)c1OC(C)=O (stereo not drawn) [Cmpd 1099] |  |  |  |  |  |  | B (≤ 80) | D | A (> 80) | A (> 80) | 
COCCC(=O)Oc1c(OC)ccnc1C(=O)NC(C)C(=O)OC(C)C(CC(C)C)Oc1ccccc1 (stereo not drawn) [Cmpd 1100] |  |  |  |  |  |  | A (> 80) | A (> 80) | A (> 80) | A (> 80) | 
CCOc1ccnc(C(=O)N[C@@H](C)C(=O)O[C@@H](C)[C@@H](CC(C)C)Oc2cccc(F)c2)c1OC(C)=O [Cmpd 1107] |  |  |  |  |  |  | D | D | B (≤ 80) | B (≤ 80) | 
CCOc1ccnc(C(=O)N[C@@H](C)C(=O)O[C@@H](C)[C@@H](CC(C)C)Oc2cccc(Cl)c2)c1OC(C)=O [Cmpd 1109] |  |  |  |  |  |  | D | B (≤ 80) | B (≤ 80) | B (≤ 80) | 
CCOc1ccnc(C(=O)N[C@@H](C)C(=O)O[C@@H](C)[C@@H](CC(C)C)Oc2ccc(Cl)c(OC)c2)c1OC(C)=O [Cmpd 1110] |  |  |  |  |  |  | D | D | D | D | 
COc1ccnc(C(=O)N[C@@H](C)C(=O)O[C@@H](C)[C@@H](CC(C)C)OCC(C)C)c1OC(C)=O [Cmpd 1111] |  |  |  |  |  |  | B (≤ 80) | A (> 80) | A (> 80) | A (> 80) | 
COc1ccnc(C(=O)N[C@@H](C)C(=O)O[C@@H](C)[C@@H](CC(C)C)OCC2CC2)c1OC(C)=O [Cmpd 1112] |  |  |  |  |  |  | D | D | B (≤ 80) | A (> 80) | 
COc1ccnc(C(=O)N[C@@H](C)C(=O)O[C@@H](C)[C@@H](CC(C)C)Oc2cccc(F)c2)c1OC(C)=O [Cmpd 1113] |  |  |  |  |  |  | A (> 80) | A (> 80) | A (> 80) | A (> 80) | 
COc1ccnc(C(=O)N[C@@H](C)C(=O)O[C@@H](C)[C@@H](CC(C)C)Oc2cc(F)ccc2F)c1OC(C)=O [Cmpd 1114] |  |  |  |  |  |  | A (> 80) | A (> 80) | A (> 80) | A (> 80) | 
COc1ccnc(C(=O)N[C@@H](C)C(=O)O[C@@H](C)[C@@H](CC(C)C)Oc2ccc(C)cc2Cl)c1OC(C)=O [Cmpd 1115] |  |  |  |  |  |  | B (≤ 80) | B (≤ 80) | A (> 80) | A (> 80) | 
COc1cc(O[C@H](CC(C)C)[C@H](C)OC(=O)[C@H](C)NC(=O)c2nccc(OC)c2OC(C)=O)ccc1Cl [Cmpd 1116] |  |  |  |  |  |  | A (> 80) | A (> 80) | A (> 80) | A (> 80) | 

Source: US20180000085A1, “USE OF PICOLINAMIDE COMPOUNDS WITH FUNGICIDAL ACTIVITY” (DOW AGROSCIENCES LLC, priority 2014, published 2018)
